In patent US8716293B2, “Macrocyclic integrase inhibitors” (Janssen R&D Ireland, priority 2010, dated 2014):

What was measured:
[1] = pharmacokinetic evaluation in the rat; format: in vivo, male Sprague-Dawley rats; conditions: intravenous bolus 2 mg/kg; for CLp: plasma clearance; for t1/2: terminal phase elimination half-life; for Vss: volume of distribution at steady-state
Method: For determining the pharmacokinetic properties in rat, each HIV integrase inhibitor was dissolved in PEG400/normal saline (70:30 (v/v)) at a nominal concentration of 1 mg/ml and administered (2 ml/kg) to male Sprague-Dawley rats (n=3 per test compound) as an intravenous bolus via a saphenous vein at a dose level of 2 mg/kg. […] Plasma was obtained by centrifugation and stored at −20° C. prior to analysis. Analysis was performed using liquid chromatography (LC) with tandem mass spectrometric detection (MS/MS) in positive ion mode. Each HIV integrase inhibitor was eluted from a reversed-phase column with a gradient of acetonitrile and water containing 0.1% (v/v) formic acid. At the time of analysis plasma samples (50 p. 1) were thawed and […] with 200 μl of acetonitrile containing 0.1% (v/v) formic acid and centrifuged. Aliquots of the supernatant (100 μl) were diluted with 200 μl of water containing 25% (v/v) methanol and 0.1% (v/v) formic acid and injected via an electrospray interface directly into the Mass Spectrometer. Calibration standards and quality controls were prepared in rat plasma at the same time as the samples and analyzed before and after the samples containing HIV integrase inhibitor. Non-compartmental pharmacokinetic analysis of the plasma concentration-time curves was performed using WinNonLin software to provide estimates of the plasma clearance (CLp), volume of distribution at steady-state (Vss) and terminal phase elimination half-life (t1/2).

[2] = tested on: cryopreserved hepatocytes from Sprague Dawley rats; assay: metabolic stability in rat hepatocytes; format: in vitro ADME; conditions: 1 μM, percentage turnover; for Rat (% TO) 15 min: 15 min incubation; for Rat (% TO) 60 min: 60 min incubation
Method: (§1) For determining in vitro metabolic stability, cryopreserved hepatocytes from Sprague Dawley rats and of human subjects (pool of male and female) were obtained from an external supplier (Cellz Direct Inc., Paisly, UK). Tested compounds were dissolved in DMSO and this stock solution was used to spike rat and human hepatocyte cell cultures (10^6 cells/ml) at a final concentration of 1 μM (final percentage of DMSO was 0.02% (v/v)). Incubations were performed for up to 60 min at approximately 37° C. and terminated by the addition of two volumes of DMSO. Samples were then centrifuged and aliquots of the supernatant analyzed using liquid chromatography (LC) with electrospray mass spectrometric detection (MS/MS) to monitor the disappearance of parent compound by single reaction monitoring (SRM) and reverse-phase chromotatography with a gradient of acetonitrile and water containing 0.1% (v/v) formic acid. Based on peak area, the percentage of parent compound remaining after 15 and 60 min incubation was calculated and the results, expressed as percentage turnover (TO) relative to time zero controls.

[3] = tested on: HIV-1 LAI (IIIB); assay: antiviral assay in the presence of 50% human serum; format: cell-based; conditions: MT-4-LTR-EGFP cells, 4 days, resazurin cell viability
Method: For the antiviral assay in the presence of 50% human serum, MT-4-LTR-EGFP cells were infected with HIV-1 LAI (IIIB) at a MOI of 0.001 to 0.01 CCID50/cell in RPMI1640 medium. Following 1 h of incubation, cells were washed and plated into a 96-well plate containing serial dilutions of test compound in the presence of 10% fetal calf serum or 50% human serum. After 4 days of incubation, the EC50 in the presence of 50% human serum (EC50/HS) was determined by a cell viability assay using resazurin (as described by Fields, R. D., and M. V. Lancaster (1993) Am. Biotechnol. Lab. 11:48-50).

[4] = tested on: cryopreserved hepatocytes of human subjects; assay: metabolic stability in human hepatocytes; format: in vitro ADME; conditions: 1 μM, percentage turnover; for Human (% TO) 15 min: 15 min incubation; for Human (% TO) 60 min: 60 min incubation
Method: as §1

[5] = tested on: HIV-1 SDM strain G140S-Q148H; assay: cell-based HIV-1 replication assay in MT4-LTR-EGFP cells, G140S-Q148H mutant; conditions: fold change in activity against G140S-Q148H mutant compared to wild type HIV
Source text: (§2) MT4-LTR-enhanced green fluorescent protein (EGFP) cells were obtained by transfecting MT4 cells with a selectable construct encompassing the coding sequences for the HIV LTR as a promoter for the expression of EGFP and subsequent selection of permanently transfected cells. MT4-cytomegalovirus (CMV)-EGFP cells were obtained by selection for permanently transformed MT4 cells with a CMV-EGFP reporter gene. Cell lines were maintained in RPMI 1640 medium supplemented with 10% heat-inactivated fetal calf serum, 2 mM L-glutamine, 0.1% NaHCO3, and antibiotics (0.02% gentamicin and 0.8% G418) and incubated in a humidified incubator with a 5% CO2 atmosphere at 37° C.
(§3) N155H and Q148R mutant Integrase coding sequences were constructed in the pUC19-5′HXB2D vector (XbaI-SalI fragment of pHXB2D), containing the HIV-1 clone HXB2D IN coding sequence, by using a QuikChange site-directed mutagenesis kit (Stratagene, La Jolla, Calif.) and HPLC-purified primers (Genset Oligos, La Jolla, Calif.). Altered plasmid sequences were confirmed by dideoxyribose sequencing. For generation of site-directed mutant (SDM) virus stocks, MT4 cells were subcultured at a density of 250,000 cells/ml on the day before transfection. Cells were pelleted and resuspended in phosphate-buffered saline at a concentration of 3.1×10^6 cells/ml. A 0.8-ml portion ([…]) was used for each transfection. Transfections were performed with a Bio-Rad Gene Pulser (Bio-Rad, Hercules, Calif.) with 0.4-cm electrode cuvettes (Bio-Rad). Cells were electroporated with 10 μg of SalI-linearized pUC19-3′HXB2D (SalI-XbaI fragment of pHXB2D) and 5 μg of SalI-digested SDM at 250 μF and 300 V, followed by a 30-min incubation at room temperature. Ten ml of fresh culture medium was then added to the suspension of transfected cells, and incubation was performed at 37° C. in a humidified atmosphere with 5% CO2. Cell cultures were monitored for the appearance of cytopathic effect (CPE).
(§4) The inhibitory antiviral activity of different compounds was determined in a cell-based HIV-1 replication assay. MT4-LTR-EGFP cells (150,000 cells/ml) were infected with HIV-1 (IIIB or SDM strains Q148R, N155H, or G140S-Q148H; multiplicity of infection [MOI] of 0.0025) in the presence or absence of inhibitor. After 3 days of incubation, the inhibition of HIV replication was quantified by measuring EGFP fluorescence, and expressed as the compound concentration required for 50% inhibition of HIV-1 replication in cell culture (EC50).

[6] = tested on: HIV-1 SDM strain N155H; assay: cell-based HIV-1 replication assay in MT4-LTR-EGFP cells, N155H mutant; conditions: fold change in activity against N155H mutant compared to wild type HIV
Source text: as §2, §3, §4

[7] = tested on: HIV-1 SDM strain Q148R; assay: cell-based HIV-1 replication assay in MT4-LTR-EGFP cells, Q148R mutant; conditions: fold change in activity against Q148R mutant compared to wild type HIV
Source text: as §2, §3, §4

SMILES	CLp [1] [mL/min/kg]	t1/2 [1] [h]	Vss [1] [L/kg]	Rat (% TO) 15 min [2] [% TO]	Rat (% TO) 60 min [2] [% TO]	EC50 [3] [nM]	Human (% TO) 15 min [4] [% TO]	Human (% TO) 60 min [4] [% TO]	FC-G140S-Q148H [5]	FC-N155H [6]	FC-Q148R [7]
CCN1C[C@H](C)n2c(c(O)c3c(=O)n4nc(c32)N(C)S(=O)(=O)CCCCCOc2cc(F)ccc2C4)C1=O [Compound 5]	8	4.9	1.5	15	20	16	12	38	1.2	2.4	0.5
CC(C)N1C[C@H](C)n2c(c(O)c3c(=O)n4nc(c32)N(C)S(=O)(=O)CCCCOc2cc(F)ccc2C4)C1=O [Compound 6]	5	5.5	0.7	20	33	5	23	36	1.7	3.2	0.7
CC(C)N1C[C@H](C)n2c(c(O)c3c(=O)n4nc(c32)N(C)S(=O)(=O)CCCCCOc2cc(F)ccc2C4)C1=O [Compound 7]	7	4.8	0.9	21	31	12	2	12	1.0	2.2	0.4
CCN1C[C@H](C)n2c(c(O)c3c(=O)n4nc(c32)N(C)S(=O)(=O)CCCCNC(=O)c2cc(F)ccc2C4)C1=O [Compound 22]	12	–	0.6	–	–	14	–	–	1.7	6.0	0.5
CCN1C[C@H](C)n2c(c(O)c3c(=O)n4nc(c32)C(=O)N(C)CCCCCOc2cc(F)ccc2C4)C1=O [Compound 31]	13	8.1	6	–	–	21	–	–	7.0	4.6	0.6
CCN1CCCCCOc2cc(F)c(Cl)cc2Cn2nc(c3c(c(O)c4n3[C@@H](C)CN(CC)C4=O)c2=O)C1=O [Compound 33]	11	4.2	1.3	–	–	147	–	–	2.5	5.1	0.5
CCN1C[C@H](C)n2c(c(O)c3c(=O)n4nc(c32)NCCCNC(=O)c2cc(F)ccc2C4)C1=O [Compound 39]	–	–	–	–	–	3370	–	–	2.8	4.6	1.1
CCN1C[C@H](C)n2c(c(O)c3c(=O)n4nc(c32)NCCCCCNC(=O)c2cc(F)ccc2C4)C1=O [Compound 40]	–	–	–	–	–	1100	–	–	3.1	6.2	0.4
CCN1C[C@H](C)n2c(c(O)c3c(=O)n4nc(c32)NCCCCCCNC(=O)c2cc(F)ccc2C4)C1=O [Compound 41]	7	5.4	0.7	–	–	1110	–	–	2.8	6.0	0.4
CCN1C[C@H](C)n2c(c(O)c3c(=O)n4nc(c32)NCCCCCCN(C)C(=O)c2cc(F)ccc2C4)C1=O [Compound 42]	–	–	–	–	–	3170	–	–	2.6	3.3	0.5
CCN1C[C@H](C)n2c(c(O)c3c(=O)n4nc(c32)N(C)CCCCCCNC(=O)c2cc(F)ccc2C4)C1=O [Compound 43]	–	–	–	–	–	101	–	–	0.8	2.0	0.5
CCN1C[C@H](C)n2c(c(O)c3c(=O)n4nc(c32)N2CCN(CC2)C(=O)CCCCOc2cc(F)ccc2C4)C1=O [Compound 45]	8	4.2	0.9	–	–	6	–	–	1.6	4.3	0.8
CCN1C[C@H](C)n2c(c(O)c3c(=O)n4nc(c32)N(C)CCCCCCOc2cc(F)ccc2C4)C1=O [Compound 46]	–	–	–	–	–	1490	–	–	3.6	40.8	0.3
CCN1C[C@H](C)n2c(c(O)c3c(=O)n4nc(c32)N2CCN(CCCCOc3cc(F)ccc3C4)S2(=O)=O)C1=O [Compound 47]	–	–	–	–	–	4	–	–	3.2	4.4	0.7
CCN1C[C@H](C)n2c(c(O)c3c(=O)n4nc(c32)N(C)S(=O)(=O)CC/C=C\COc2cc(F)ccc2C4)C1=O [Compound 49]	–	–	–	–	–	8	–	–	1.6	5.3	0.5
CCN1C[C@H](C)n2c(c(O)c3c(=O)n4nc(c32)N(C)S(=O)(=O)CCC/C=C\COc2cc(F)ccc2C4)C1=O [Compound 50]	–	–	–	–	–	11	–	–	1.2	2.8	0.3
CCN1C[C@H](C)n2c(c(O)c3c(=O)n4nc(c32)N(C)S(=O)(=O)CCC/C=C/COc2cc(F)ccc2C4)C1=O [Compound 51]	–	–	–	–	–	13	–	–	3.4	9.6	0.4
